Experimental data reported in US8981148B2, “Esteramide compounds, methods for preparing same, and uses thereof” (priority 2010, dated 2015).

Columns and labels:
Assay type in all cases: physicochemical
[1] = Solubility of agrochemical actives in the solvents: visual observation at 25° C.; parameters: key: Crystal: When the formation of active crystals is observed, the term of <> is indicated; Limpid: When the solution remains limpid (absence of solid or cloudiness), it is the term of <> which is indicated
Description: (§1) Formulations were made by diluting various actives, reported below in the table, in the compounds 1C, 2C, 3 and 4 synthesized above.
1) Visual observation at 25° C.
The aspect of the formulation is noted and the presence of crystals is possibly located.
(§2) The actives used are commercially available.

[2] = Solubility of agrochemical actives in the solvents: visual observation at 0° C. after 7 days (CIPAC MT39 test); parameters: key: Crystal: When the formation of active crystals is observed, the term of <> is indicated; Limpid: When the solution remains limpid (absence of solid or cloudiness), it is the term of <> which is indicated; conditions: 7 days at 0° C.
Description: as §1
2) Visual observation at 0° C.
The formulation is placed at 0° C. for 7 days and the aspect of the formulation is noted and the presence of crystals is possibly located (CIPAC MT39 test).
as §2

[3] = Solubility of agrochemical actives in the solvents: visual observation at 0° C. with nucleation; parameters: key: Crystal: When the formation of active crystals is observed, the term of <> is indicated; Limpid: When the solution remains limpid (absence of solid or cloudiness), it is the term of <> which is indicated; conditions: crystal of active added, further 7 days at 0° C.
Description: Formulations were made by diluting various actives, reported below in the table, in the compounds 1C, 2C, 3 and 4 synthesized above. 3) Visual observation at 0° C. with nucleation (by introducing a crystal of the pure active into the liquid) A crystal of the active material is introduced into the formulation which has spent 7 days at 0° C. for nucleation, and the formulation is again placed for 7 days at 0° C. The aspect of the formulation is noted and the presence of crystals or the growth of the introduced crystal is possibly located. The actives used are commercially available.

[4] = Measurement of solubility of the solvent in water; conditions: +20° C., stirred 2 hours, visual limpidity
Description: In a glass flask, a specific weight of compound is weighed. A known mass of water is added on to this compound. T his mixture is magnetically stirred at a temperature of +20° C. for 2 hours. After this period, if visually, the solution has cloudiness or heterogeneity, a new mass of water is added to the mixture. This iteration occurs until a limpid solution is obtained. Maximum solubility is then less than the last value having led to a cloudy or heterogeneous mixture and greater than that having led to a limpid mixture.

[5] = Active Alachlor 48% EC in the compound as solvent
[6] = Active Azoxystrobin 25% EC in the compound as solvent
[7] = Active Difenconazole 25% EC in the compound as solvent
[8] = Active Dimethoate 40% EC in the compound as solvent
[9] = Active Oxyfluorfen 22% EC in the compound as solvent
[10] = Active Pendimethalin 33% EC in the compound as solvent
[11] = Active Phenmedipham 16% EC in the compound as solvent
[12] = Active Propanil 36% EC in the compound as solvent
[13] = Active Propuxur 20% EC in the compound as solvent
[14] = Active Tebuconazole 25% EC in the compound as solvent
[15] = Active Trifluralin 40% EC in the compound as solvent
[16] = Active alpha-Cypermethrin 10% EC in the compound as solvent
[17] = Active Chlorpyrifos 40% EC in the compound as solvent

SMILES | Aspect at 25° C. [1, 5] | Aspect at 25° C. [1, 7] | Aspect at 25° C. [1, 8] | Aspect at 25° C. [1, 9] | Aspect at 25° C. [1, 10] | Aspect at 25° C. [1, 12] | Aspect at 25° C. [1, 13] | Aspect at 25° C. [1, 15] | Aspect at 25° C. [1, 16] | Aspect at 0° C. [2, 5] | Aspect at 0° C. [2, 7] | Aspect at 0° C. [2, 8] | Aspect at 0° C. [2, 9] | Aspect at 0° C. [2, 10] | Aspect at 0° C. [2, 12] | Aspect at 0° C. [2, 13] | Aspect at 0° C. [2, 15] | Aspect at 0° C. with nucleation [3, 5] | Aspect at 0° C. with nucleation [3, 7] | Aspect at 0° C. with nucleation [3, 12] | other results
COC(=O)C(=O)N(C)C [Compound 1, methyl 2-(dimethylamino)-2-oxoacetate] | Limpid | Limpid | Limpid | Limpid | Limpid | Limpid | Limpid | Limpid | Limpid | Limpid | Limpid | Crystal | Crystal | Crystal | Limpid | Limpid | Crystal | Limpid | Limpid | Limpid | Aspect at 25° C. [1, 6]: Limpid; Aspect at 25° C. [1, 11]: Limpid; Aspect at 25° C. [1, 14]: Limpid; Aspect at 0° C. [2, 6]: Crystal; Aspect at 0° C. [2, 11]: Limpid; Aspect at 0° C. [2, 14]: Crystal; Aspect at 0° C. [2, 16]: Limpid; Aspect at 0° C. with nucleation [3, 11]: Limpid; Aspect at 0° C. with nucleation [3, 13]: Limpid; Aspect at 0° C. with nucleation [3, 16]: Limpid
CCOC(=O)C(=O)N(C)C [Compound 2, ethyl 2-(dimethylamino)-2-oxoacetate] | Limpid | Limpid | Limpid | Limpid | Limpid | Limpid | Limpid | Limpid | Limpid | Limpid | Limpid | Limpid | Limpid | Crystal | Limpid | Crystal | Limpid | Limpid | Limpid | Limpid | Aspect at 25° C. [1, 6]: Limpid; Aspect at 25° C. [1, 17]: Limpid; Aspect at 25° C. [1, 11]: Limpid; Aspect at 25° C. [1, 14]: Limpid; Aspect at 0° C. [2, 6]: Crystal; Aspect at 0° C. [2, 17]: Limpid; Aspect at 0° C. [2, 11]: Limpid; Aspect at 0° C. [2, 14]: Crystal; Aspect at 0° C. [2, 16]: Limpid; Aspect at 0° C. with nucleation [3, 17]: Limpid; Aspect at 0° C. with nucleation [3, 8]: Crystal; Aspect at 0° C. with nucleation [3, 9]: Limpid; Aspect at 0° C. with nucleation [3, 11]: Limpid; Aspect at 0° C. with nucleation [3, 15]: Limpid; Aspect at 0° C. with nucleation [3, 16]: Limpid
CCCCC(CC)COC(=O)C(=O)N(C)C (centres unmarked) [Compound 3, 2-ethyl-hexyl 2-(dimethylamino)-2-oxoacetate] | Limpid | Limpid | Limpid | Limpid | Limpid | Limpid | Limpid | Limpid | Limpid | Limpid | Limpid | Crystal | Limpid | Crystal | Limpid | Crystal | Limpid | Limpid | Limpid | Limpid | Solubility in water (wt %) [4]: <0.1 wt %; Aspect at 25° C. [1, 17]: Limpid; Aspect at 0° C. [2, 17]: Limpid; Aspect at 0° C. [2, 16]: Limpid; Aspect at 0° C. with nucleation [3, 17]: Limpid; Aspect at 0° C. with nucleation [3, 9]: Crystal; Aspect at 0° C. with nucleation [3, 15]: Limpid; Aspect at 0° C. with nucleation [3, 16]: Limpid
CCCCCCCCCCOC(=O)C(=O)N(C)C [Compound 4, n-decyl 2-(dimethylamino)-2-oxoacetate] | Limpid | Limpid | – | Limpid | – | Limpid | – | Limpid | – | Limpid | Limpid | – | Limpid | – | Limpid | – | Crystal | Limpid | Limpid | Limpid | Solubility in water (wt %) [4]: <0.025 wt %; Aspect at 25° C. [1, 17]: Limpid; Aspect at 0° C. [2, 17]: Crystal; Aspect at 0° C. with nucleation [3, 9]: Limpid
